Measurements: publication PMC6160541 (Frontiers in Chemistry, 2018)

Legend:
[1] = system: HeLa; test: MTT cytotoxicity assay, HeLa; assay type: cell-based, human; settings: 48 h
Description: (§1) We evaluated the cytotoxicity of 1c-6c, 1d-7d and of the positive control 1a-5a against a panel of human cancer cells using MTT (3-(4,5-dimethylthiazol-2-yl)-2,5-diphenyltetrazolium bromide) assay. The IC50 values were calculated based on three parallel experiments.
(§2) Cisplatin and oxaliplatin were purchased from Yurui Chemical Co. Ltd. (Shanghai, China). All of the other chemicals were obtained from commercial suppliers, such as Alfa […]
(§3) IonSpec QFT mass spectrometer with ESI ionization. 3-(4,5-dimethylthiazol-2-yl) […]
(§4) Phosphate-buffered saline (PBS) contains 137 mM
(§5) NaCl, 2.7 mM KCl, 10 mM Na2HPO4 and 2 mM KH2PO4. Fetal bovine serum (FBS), 0.25% trypsin/EDTA solution, and penicillin-streptomycin solution were purchased from […]
(§6) Invitrogen (Grand Island, NY, USA). […]
(§7) HeLa (cervical carcinoma cell line), MCF-7 (breast gland adenocarcinoma), LNCaP and PC3 (prostatic cancer), HepG-2 (hepatocellular carcinoma), A549 and A549R (lung carcinoma) were used for the MTT […]
(§8) In Vitro Cellular Cytotoxicity Assays
(§9) Cells seeded in 96-well plates were incubated in a 5% CO2 atmosphere in 100 µL of complete medium at 37 ℃ for 24 h. Then, 100 µL of freshly prepared culture medium containing drugs at different concentrations was added and incubated for another 48 h.
(§10) MTT (5 mg/mL, 20 µL) was added and incubated for 3 h. Finally, the medium was removed, and DMSO (150 µL) was added. The absorbance was measured at 570 nm using a Bio-Rad 680 microplate reader. The IC50 values were calculated using GraphPad […]
(§11) Prism software. […]

[2] = system: MCF-7; test: MTT cytotoxicity assay, MCF-7; assay type: cell-based, human; settings: 48 h
Description: as §1, §2, §3, §4, §5, §6, §7, §8, §9, §10, §11

[3] = system: LNCaP; test: MTT cytotoxicity assay, LNCaP; assay type: cell-based, human; settings: 48 h
Description: as §1, §2, §3, §4, §5, §6, §7, §8, §9, §10, §11

[4] = system: PC3; test: MTT cytotoxicity assay, PC3; assay type: cell-based, human; settings: 48 h
Description: as §1, §2, §3, §4, §5, §6, §7, §8, §9, §10, §11

[5] = system: HepG-2; test: MTT cytotoxicity assay, HepG-2; assay type: cell-based, human; settings: 48 h
Description: as §1, §2, §3, §4, §5, §6, §7, §8, §9, §10, §11

[6] = system: A549; test: MTT cytotoxicity assay, A549; assay type: cell-based, human; settings: 48 h
Description: as §1, §2, §3, §4, §5, §6, §7, §8, §9, §10, §11

[7] = system: A549R; test: MTT cytotoxicity assay, A549R (cisplatin-resistant); assay type: cell-based, human
Description: as §1, §2, §3, §4, §5, §6, §7, §8, §9, §10, §11

[8] = system: MDCK cells; test: MTT cytotoxicity with EDG, phloretin, Ctd. in MDCK cells; assay type: cell-based, canine; settings: vs IC50 at 48 h
Excerpt: Finally, Madin-Darby canine kidney (MDCK) cells, which are widely used to establish the model of the intestinal epithelium and to evaluate the oral administration and screening of substrates and inhibitors in vitro, were used to find a prodrug with the enhanced potential for oral administration. […] (Figure 10).

[9] = design: method as in printed; settings: comparison values, ref not given; cited from earlier work

CC(=O)[O][Pt]([NH2])([Cl])([Cl])([NH]C1CCCCC1)[O]C(C)=O [5a, satraplatin, reference compound]
IC50 [1]: 3.1 ± 0.89 µM | IC50 [2]: 8.01 ± 0.56 µM | IC50 [3]: 5.23 ± 1.77 µM | IC50 [4]: 16.8 ± 1.56 µM | IC50 [5]: 6.7 ± 1.89 µM | IC50 [6]: 2.17 ± 1.68 µM | RF: Resistance factor = IC50(A549R)/IC50(A549) [7]: 4.59 | IC50 ([7]; MTT, 48 h): 9.96 ± 0.57 µM | effect of EDG, phloretin, Ctd. and EDG + Ctd. on IC50 [8]: no great differences | t1/2 in whole human blood [9]: 6.3 min
